From article PMC11995724, “Antibiotic target discovery by integrated phenotypic and activity-based profiling of electrophilic fragments” (Cell chemical biology, 2025)
Structures can show the parent of a compound that is named as a salt.

Experiment: in vitro
Settings: human, hek293t cells

With `O=C(CCl)NCC(c1ccccc1Cl)N1CCCC1` (stereo not drawn) [6-G17, 2-chloro-N-[2-(2-chlorophenyl)-2-(pyrrolidin-1-yl)ethyl]acetamide hydrochloride] as the molecule, how does the viability at 48 h, 25 µM read?
Its viability at 48 h, 25 µM is 104%.

With `O=C(CCl)NC1CCN(Cc2ccccc2)C1` (stereo not drawn) [6-G18, N-(1-benzylpyrrolidin-3-yl)-2-chloroacetamide hydrochloride] as the molecule, how does the viability at 48 h, 25 µM read?
The viability at 48 h, 25 µM was 3.85%.

With `O=C(CCl)NC1CCC(c2nc(-c3ccccc3)n[nH]2)CC1` (stereo not drawn) [6-G19, 2-chloro-N-[4-(3-phenyl-1H-1,2,4-triazol-5-yl)cyclohexyl]acetamide] as the molecule, how does the viability at 48 h, 25 µM read?
Its viability at 48 h, 25 µM is 39.3%.

Which viability at 48 h, 25 µM does the source give for `O=C(CCl)N[C@H](CO)Cc1ccccc1` [6-G20, 2-chloro-N-[(2S)-1-hydroxy-3-phenylpropan-2-yl]acetamide] here?
The viability at 48 h, 25 µM was 81.9%.

Which viability at 48 h, 25 µM does the source give for `C[C@@H](NC(=O)CCl)c1ccc(F)cc1` [6-G21, 2-chloro-N-[(1R)-1-(4-fluorophenyl)ethyl]acetamide] here?
The viability at 48 h, 25 µM was 129%.

Which viability at 48 h, 25 µM does the source give for `O=C(CCl)NCCc1cnn(-c2ccccc2)c1` [6-G22, 2-chloro-N-[2-(1-phenyl-1H-pyrazol-4-yl)ethyl]acetamide] here?
The viability at 48 h, 25 µM was 1.31%.

For `O=C(CCl)Nc1cc(S(=O)(=O)N2CCOCC2)ccc1Cl` [6-H03, 2-chloro-N-[2-chloro-5-(morpholine-4-sulfonyl)phenyl]acetamide], which viability at 48 h, 25 µM is on record?
The viability at 48 h, 25 µM was 1.8%.

For `O=C(CCl)NCCS(=O)(=O)N1CCc2ccccc21` [6-H04, 2-chloro-N-[2-(2,3-dihydro-1H-indole-1-sulfonyl)ethyl]acetamide], which viability at 48 h, 25 µM is on record?
The viability at 48 h, 25 µM was 14.1%.

With `CC1CCCN(C(=O)C(NC(=O)CCl)c2cnn(C)c2)C1` (stereo not drawn) [6-H05, 2-chloro-N-[1-(1-methyl-1H-pyrazol-4-yl)-2-(3-methylpiperidin-1-yl)-2-oxoethyl]acetamide] as the molecule, how does the viability at 48 h, 25 µM read?
The viability at 48 h, 25 µM was 104%.

For `O=C(CCl)N(Cc1ccc(Cl)c([N+](=O)[O-])c1)c1ccccc1` [6-H06, 2-chloro-N-[(4-chloro-3-nitrophenyl)methyl]-N-phenylacetamide], which viability at 48 h, 25 µM is on record?
The viability at 48 h, 25 µM was 0.976%.

With `Cc1ccc2[nH]c3c(c2c1)CCCC3N(C)C(=O)CCl` (stereo not drawn) [6-H07, 2-chloro-N-methyl-N-(6-methyl-2,3,4,9-tetrahydro-1H-carbazol-1-yl)acetamide] as the molecule, how does the viability at 48 h, 25 µM read?
The viability at 48 h, 25 µM was 0.1%.

For `O=C(CCl)NCc1cc(C(F)F)no1` [6-H08, 2-chloro-N-{[3-(difluoromethyl)-1,2-oxazol-5-yl]methyl}acetamide], which viability at 48 h, 25 µM is on record?
Its viability at 48 h, 25 µM is 5.77%.

Which viability at 48 h, 25 µM does the source give for `CC(Cl)C(=O)N1CCCC(n2ncc(N(C)C(C)C)cc2=O)C1` (stereo not drawn) [6-H09, 2-[1-(2-chloropropanoyl)piperidin-3-yl]-5-[methyl(propan-2-yl)amino]-2,3-dihydropyridazin-3-one] here?
Its viability at 48 h, 25 µM is 97.3%.

For `CC(Cl)C(=O)Nc1ccccc1Sc1ccccc1` (stereo not drawn) [6-H10, 2-chloro-N-[2-(phenylsulfanyl)phenyl]propanamide], which viability at 48 h, 25 µM is on record?
The viability at 48 h, 25 µM was 116%.

Which viability at 48 h, 25 µM does the source give for `CN(CCNC(=O)CCl)S(=O)(=O)c1cccs1` [6-H11, 2-chloro-N-[2-(N-methylthiophene-2-sulfonamido)ethyl]acetamide] here?
The viability at 48 h, 25 µM was 11.1%.

With `CN(C)S(=O)(=O)c1ccc(Cl)c(NC(=O)CCl)c1` [6-H12, 2-chloro-N-[2-chloro-5-(dimethylsulfamoyl)phenyl]acetamide] as the molecule, how does the viability at 48 h, 25 µM read?
The viability at 48 h, 25 µM was 0.99%.

Which viability at 48 h, 25 µM does the source give for `CC(Cl)C(=O)NC(C)c1nnc2n1CCCC2` (stereo not drawn) [6-H13, 2-chloro-N-(1-{5H,6H,7H,8H-[1,2,4]triazolo[4,3-a]pyridin-3-yl}ethyl)propanamide] here?
Its viability at 48 h, 25 µM is 105%.

For `CC(Cl)C(=O)NCc1cc(C(F)F)nn1C` (stereo not drawn) [6-H14, 2-chloro-N-{[3-(difluoromethyl)-1-methyl-1H-pyrazol-5-yl]methyl}propanamide], which viability at 48 h, 25 µM is on record?
The viability at 48 h, 25 µM was 108%.

Which viability at 48 h, 25 µM does the source give for `Cc1nsc(N2CCN(C(=O)C(C)Cl)CC2)c1C#N` (stereo not drawn) [6-H15, 5-[4-(2-chloropropanoyl)piperazin-1-yl]-3-methyl-1,2-thiazole-4-carbonitrile] here?
The viability at 48 h, 25 µM was 91.4%.

Which viability at 48 h, 25 µM does the source give for `CCc1ccc(OC(C)C(=O)N2CCN(C(=O)C(C)Cl)CC2)cc1` (stereo not drawn) [6-H16, 1-[4-(2-chloropropanoyl)piperazin-1-yl]-2-(4-ethylphenoxy)propan-1-one] here?
Its viability at 48 h, 25 µM is 105%.

For `CC(Cl)C(=O)N1CCN(CCOc2ccc3c(c2)CCC3)CC1` (stereo not drawn) [6-H17, 2-chloro-1-{4-[2-(2,3-dihydro-1H-inden-5-yloxy)ethyl]piperazin-1-yl}propan-1-one], which viability at 48 h, 25 µM is on record?
The viability at 48 h, 25 µM was 3.42%.

With `CC1CC(c2ccccc2F)N(C(=O)C(C)Cl)C1` (stereo not drawn) [6-H18, 2-chloro-1-[2-(2-fluorophenyl)-4-methylpyrrolidin-1-yl]propan-1-one] as the molecule, how does the viability at 48 h, 25 µM read?
Its viability at 48 h, 25 µM is 116%.

For `CC(Cl)C(=O)N1Cc2ccccc2OC(C)(C)C1` (stereo not drawn) [6-H19, 2-chloro-1-(2,2-dimethyl-2,3,4,5-tetrahydro-1,4-benzoxazepin-4-yl)propan-1-one], which viability at 48 h, 25 µM is on record?
The viability at 48 h, 25 µM was 91%.

Which viability at 48 h, 25 µM does the source give for `CC(Cl)C(=O)NCC1c2ccccc2C(=O)N1Cc1ccccc1` (stereo not drawn) [6-H20, N-[(2-benzyl-3-oxo-2,3-dihydro-1H-isoindol-1-yl)methyl]-2-chloropropanamide] here?
Its viability at 48 h, 25 µM is 107%.

With `CC(Cl)C(=O)NC1CCC(C)(C)c2ccccc21` (stereo not drawn) [6-H21, 2-chloro-N-(4,4-dimethyl-1,2,3,4-tetrahydronaphthalen-1-yl)propanamide] as the molecule, how does the viability at 48 h, 25 µM read?
Its viability at 48 h, 25 µM is 100%.

With `CC(Cl)C(=O)N1CCOCC(n2cccn2)C1` (stereo not drawn) [6-H22, 2-chloro-1-[6-(1H-pyrazol-1-yl)-1,4-oxazepan-4-yl]propan-1-one] as the molecule, how does the viability at 48 h, 25 µM read?
The viability at 48 h, 25 µM was 105%.

With `COc1cccc(NC(=O)C(C)Cl)c1` (stereo not drawn) [6-I03, 2-chloro-N-(3-methoxyphenyl)propanamide] as the molecule, how does the viability at 48 h, 25 µM read?
The viability at 48 h, 25 µM was 105%.

With `CC(Cl)C(=O)NCc1ccc(Cl)cc1` (stereo not drawn) [6-I04, 2-chloro-N-[(4-chlorophenyl)methyl]propanamide] as the molecule, how does the viability at 48 h, 25 µM read?
The viability at 48 h, 25 µM was 107%.

Which viability at 48 h, 25 µM does the source give for `Cc1ccc2nc(-c3ccc(NC(=O)CCl)cc3)sc2c1` [6-I05, 2-chloro-N-[4-(6-methyl-1,3-benzothiazol-2-yl)phenyl]acetamide] here?
The viability at 48 h, 25 µM was 3.47%.

With `COC(=O)C1(NC(=O)CCl)CC1` [6-I06, methyl 1-(2-chloroacetamido)cyclopropane-1-carboxylate] as the molecule, how does the viability at 48 h, 25 µM read?
Its viability at 48 h, 25 µM is 101%.

Which viability at 48 h, 25 µM does the source give for `O=C(CCl)NCC1(c2ccccc2)CCOCC1` [6-I07, 2-chloro-N-[(4-phenyloxan-4-yl)methyl]acetamide] here?
The viability at 48 h, 25 µM was 89.3%.

For `Cc1nn(-c2ccccc2)c(C)c1CNC(=O)CCl` [6-I08, 2-chloro-N-[(3,5-dimethyl-1-phenyl-1H-pyrazol-4-yl)methyl]acetamide], which viability at 48 h, 25 µM is on record?
The viability at 48 h, 25 µM was 2.35%.

For `N#Cc1c(NC(=O)CCl)oc(-c2cccs2)c1-c1cccs1` [6-I09, 2-chloro-N-[3-cyano-4,5-bis(thiophen-2-yl)furan-2-yl]acetamide], which viability at 48 h, 25 µM is on record?
Its viability at 48 h, 25 µM is 28.5%.

With `Cc1c(Cl)cccc1NC(=O)C(C)Cl` (stereo not drawn) [6-I10, 2-chloro-N-(3-chloro-2-methylphenyl)propanamide] as the molecule, how does the viability at 48 h, 25 µM read?
Its viability at 48 h, 25 µM is 110%.

For `CCOC(=O)c1c(NC(=O)CCl)sc2c1CCCC2` [6-I11, ethyl 2-(2-chloroacetamido)-4,5,6,7-tetrahydro-1-benzothiophene-3-carboxylate], which viability at 48 h, 25 µM is on record?
Its viability at 48 h, 25 µM is 44.9%.

Which viability at 48 h, 25 µM does the source give for `N#CCCN(C(=O)CCl)c1ccccc1` [6-I12, 2-chloro-N-(2-cyanoethyl)-N-phenylacetamide] here?
Its viability at 48 h, 25 µM is 1.62%.

With `CC(Cl)C(=O)N(C)Cc1ccccc1` (stereo not drawn) [6-I13, N-benzyl-2-chloro-N-methylpropanamide] as the molecule, how does the viability at 48 h, 25 µM read?
The viability at 48 h, 25 µM was 105%.

With `CC(Cl)C(=O)Nc1cc([N+](=O)[O-])ccc1Cl` (stereo not drawn) [6-I14, 2-chloro-N-(2-chloro-5-nitrophenyl)propanamide] as the molecule, how does the viability at 48 h, 25 µM read?
The viability at 48 h, 25 µM was 117%.

For `CCn1cc(NC(=O)CCl)cn1` [6-I15, 2-chloro-N-(1-ethyl-1H-pyrazol-4-yl)acetamide hydrochloride], which viability at 48 h, 25 µM is on record?
The viability at 48 h, 25 µM was 10.5%.
